Test results as given in PubChem BioAssay AID248 (DTP/NCI, 2004).
Where “and” joins values, the source holds several entries; their conditions need not be identical. Equal entries are not always repeated. Inconclusive results and toxic doses are left out.

System: L1210 leukemia ip in BDF1 mice, survival T/C
Test: NCI In Vivo Anticancer Drug Screen. Data for tumor model L1210 Leukemia (intraperitoneal) in B6D2F1 (BDF1) mice
Settings: endpoint: mean survival time, higher = longer survival
In short: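 Transplantable tumor model; survival measured in treated vs vehicle control mice. Value = treated/control.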

[1] = dose: 100.0 mg/kg/injection, schedule: Q01DX001 (ip), vehicle: Klucel (hydroxypropylcellulose) (HPC)
[2] = dose: 100.0 mg/kg/injection, schedule: Q04DX003 (ip), vehicle: Klucel (hydroxypropylcellulose) (HPC)
[3] = dose: 200.0 mg/kg/injection, schedule: Q04DX003 (ip), vehicle: Klucel (hydroxypropylcellulose) (HPC)
[4] = dose: 400.0 mg/kg/injection, schedule: Q04DX003 (ip), vehicle: Klucel (hydroxypropylcellulose) (HPC)
[5] = dose: 100.0 mg/kg/injection, schedule: Q01DX001 (ip), vehicle: saline
[6] = dose: 200.0 mg/kg/injection, schedule: Q01DX001 (ip), vehicle: saline
[7] = dose: 100.0 mg/kg/injection, schedule: Q01DX009 (ip), vehicle: saline with Tween-80
[8] = dose: 100.0 mg/kg/injection, schedule: Q04DX003 (ip), vehicle: saline with Tween-80
[9] = dose: 200.0 mg/kg/injection, schedule: Q04DX003 (ip), vehicle: saline with Tween-80
[10] = dose: 200.0 mg/kg/injection, schedule: Q01DX009 (ip), vehicle: saline with Tween-80
[11] = dose: 400.0 mg/kg/injection, schedule: Q01DX009 (ip), vehicle: saline with Tween-80
[12] = dose: 50.0 mg/kg/injection, schedule: Q01DX009 (ip), vehicle: acetone
[13] = dose: 100.0 mg/kg/injection, schedule: Q01DX009 (ip), vehicle: acetone
[14] = dose: 100.0 mg/kg/injection, schedule: Q04DX002 (ip), vehicle: saline with Tween-80
[15] = dose: 200.0 mg/kg/injection, schedule: Q04DX002 (ip), vehicle: saline with Tween-80
[16] = dose: 400.0 mg/kg/injection, schedule: Q04DX002 (ip), vehicle: saline with Tween-80
[17] = dose: 100.0 mg/kg/injection, schedule: Q04DX002 (ip), vehicle: Klucel (hydroxypropylcellulose) (HPC)

O=P1(CCc2ccc(Cl)cc2)CC(Br)C(Br)C1 (configuration not stated)
T/C (dose: 100.0 mg/kg/injection, schedule: Q04DX003 (ip), vehicle: other): 93 % of control
T/C (dose: 200.0 mg/kg/injection, schedule: Q04DX003 (ip), vehicle: other): 95 % of control
T/C (dose: 400.0 mg/kg/injection, schedule: Q04DX003 (ip), vehicle: other): 98 % of control

Cc1cccc(NC#N)n1
T/C (dose: 25.0 mg/kg/injection, schedule: Q01DX001 (ip), vehicle: Klucel (hydroxypropylcellulose) (HPC)): 100 % of control
T/C (dose: 50.0 mg/kg/injection, schedule: Q01DX001 (ip), vehicle: Klucel (hydroxypropylcellulose) (HPC)): 98 % of control
T/C [1]: 98 % of control and 101 % of control

O=C1C2OC2(c2ccccc2)C(=O)C2OC12c1ccccc1 (configuration not stated)
T/C (dose: 75.0 mg/kg/injection, schedule: Q01DX001 (ip), vehicle: Klucel (hydroxypropylcellulose) (HPC)): 96 % of control
T/C (dose: 150.0 mg/kg/injection, schedule: Q01DX001 (ip), vehicle: Klucel (hydroxypropylcellulose) (HPC)): 87 % of control
T/C (dose: 300.0 mg/kg/injection, schedule: Q01DX001 (ip), vehicle: Klucel (hydroxypropylcellulose) (HPC)): 91 % of control

NOCc1cc2c(cc1Cl)OCO2
T/C [1]: 94 % of control
T/C (dose: 100.0 mg/kg/injection, schedule: Q01DX009 (ip), vehicle: Klucel (hydroxypropylcellulose) (HPC)): 94 % of control
T/C [2]: 90 % of control
T/C (dose: 200.0 mg/kg/injection, schedule: Q01DX001 (ip), vehicle: Klucel (hydroxypropylcellulose) (HPC)): 88 % of control
T/C (dose: 200.0 mg/kg/injection, schedule: Q01DX009 (ip), vehicle: Klucel (hydroxypropylcellulose) (HPC)): 92 % of control
T/C [3]: 96 % of control
T/C (dose: 400.0 mg/kg/injection, schedule: Q01DX001 (ip), vehicle: Klucel (hydroxypropylcellulose) (HPC)): 100 % of control
T/C (dose: 400.0 mg/kg/injection, schedule: Q01DX009 (ip), vehicle: Klucel (hydroxypropylcellulose) (HPC)): 86 % of control
T/C [4]: 96 % of control

O=[N+]([O-])c1ccc(Oc2cc(Cl)c(Cl)cc2Cl)c(Cl)c1
T/C (dose: 75.0 mg/kg/injection, schedule: Q01DX001 (ip), vehicle: saline): 87 % of control
T/C (dose: 150.0 mg/kg/injection, schedule: Q01DX001 (ip), vehicle: saline): 90 % of control
T/C (dose: 300.0 mg/kg/injection, schedule: Q01DX001 (ip), vehicle: saline): 87 % of control

Cn1c(=O)c2[nH]c(C3CCC3)nc2n(C)c1=O
T/C (dose: 50.0 mg/kg/injection, schedule: Q01DX001 (ip), vehicle: saline): 110 % of control
T/C [5]: 113 % of control
T/C [6]: 101 % of control
T/C (dose: 400.0 mg/kg/injection, schedule: Q01DX001 (ip), vehicle: saline): 107 % of control

CCNC(C)(C)C(S)c1ccc(Cl)s1 (configuration not stated)
T/C (dose: 50.0 mg/kg/injection, schedule: Q01DX009 (ip), vehicle: saline with Tween-80): 106 % of control
T/C [7]: 114 % of control
T/C [8]: 103 % of control
T/C [9]: 94 % of control

Cc1cccnc1C(=O)O
T/C (dose: 50.0 mg/kg/injection, schedule: Q04DX003 (ip), vehicle: saline with Tween-80): 94 % of control
T/C [5]: 94 % of control
T/C [8]: 95 % of control
T/C [6]: 94 % of control
T/C [9]: 91 % of control

CCOC(=O)C(C)C(=O)Cc1cc(OC)c(C)cc1Br (configuration not stated)
T/C [7]: 97 % of control
T/C [8]: 97 % of control
T/C [10]: 100 % of control
T/C [9]: 95 % of control
T/C [11]: 105 % of control
T/C (dose: 400.0 mg/kg/injection, schedule: Q04DX003 (ip), vehicle: saline with Tween-80): 109 % of control

CC(O)c1cccc(N(C)C)c1 (configuration not stated)
T/C [12]: 93 % of control
T/C [13]: 95 % of control
T/C (dose: 100.0 mg/kg/injection, schedule: Q04DX003 (ip), vehicle: acetone): 96 % of control
T/C (dose: 200.0 mg/kg/injection, schedule: Q01DX009 (ip), vehicle: acetone): 93 % of control
T/C (dose: 200.0 mg/kg/injection, schedule: Q04DX003 (ip), vehicle: acetone): 96 % of control
T/C (dose: 400.0 mg/kg/injection, schedule: Q04DX003 (ip), vehicle: acetone): 101 % of control

CC(=O)C(CCS(C)(=O)=O)c1ccccc1 (configuration not stated)
T/C [2]: 103 % of control
T/C [3]: 97 % of control
T/C [4]: 105 % of control

CCCCCCCCCCCCCCCCOc1ccc(C(SC)=[N+]2CCCCC2)cc1OC
T/C [2]: 98 % of control
T/C [3]: 102 % of control
T/C [4]: 102 % of control

O=NN(CCCl)C(=O)Nc1ccc(I)cc1
T/C (dose: 8.0 mg/kg/injection, schedule: Q01DX009 (ip), vehicle: carboxymethylcellulose (CMC)): 121 % of control
T/C (dose: 8.4 mg/kg/injection, schedule: Q01DX009 (ip), vehicle: carboxymethylcellulose (CMC)): 112 % of control
T/C (dose: 12.0 mg/kg/injection, schedule: Q01DX009 (ip), vehicle: carboxymethylcellulose (CMC)): 112 % of control
T/C (dose: 17.0 mg/kg/injection, schedule: Q01DX001 (ip), vehicle: carboxymethylcellulose (CMC)): 117 % of control
T/C (dose: 17.7 mg/kg/injection, schedule: Q01DX001 (ip), vehicle: carboxymethylcellulose (CMC)): 119 % of control
T/C (dose: 26.6 mg/kg/injection, schedule: Q01DX001 (ip), vehicle: carboxymethylcellulose (CMC)): 122 % of control
T/C (dose: 29.0 mg/kg/injection, schedule: Q01DX009 (ip), vehicle: carboxymethylcellulose (CMC)): 150 % of control and 154 % of control
T/C (dose: 44.0 mg/kg/injection, schedule: Q01DX009 (ip), vehicle: carboxymethylcellulose (CMC)): 124 % of control
T/C (dose: 60.0 mg/kg/injection, schedule: Q01DX001 (ip), vehicle: carboxymethylcellulose (CMC)): 119 % of control
T/C (dose: 66.0 mg/kg/injection, schedule: Q01DX009 (ip), vehicle: carboxymethylcellulose (CMC)): 121 % of control and 90 % of control
T/C (dose: 89.0 mg/kg/injection, schedule: Q01DX001 (ip), vehicle: carboxymethylcellulose (CMC)): 153 % of control
T/C (dose: 100.0 mg/kg/injection, schedule: Q01DX009 (ip), vehicle: carboxymethylcellulose (CMC)): 98 % of control
T/C (dose: 200.0 mg/kg/injection, schedule: Q01DX001 (ip), vehicle: carboxymethylcellulose (CMC)): 186 % of control

CCc1cc2c(cc1C(=O)/C=C\c1ccco1)C(C)(C)CCC2(C)C
T/C [7]: 103 % of control
T/C [14]: 96 % of control
T/C [10]: 95 % of control
T/C [15]: 93 % of control
T/C [11]: 106 % of control
T/C [16]: 93 % of control

O=C1OC(c2ccccc2)=N/C1=C\c1ccccc1Cl
T/C [14]: 87 % of control
T/C [15]: 94 % of control

N/C(=C\C(=O)c1ccccc1)C(=O)c1ccccc1
T/C [2]: 103 % of control
T/C [3]: 108 % of control

CCCCSC1CCCC1
T/C [12]: 98 % of control
T/C [5]: 89 % of control
T/C [13]: 110 % of control
T/C [6]: 92 % of control

CC(C)OP(=O)(OC(C)C)C1=C(P(=O)(OC(C)C)OC(C)C)C(F)(F)C(F)(F)C1(F)F
T/C (dose: 9.5 mg/kg/injection, schedule: Q01DX001 (ip), vehicle: other): 106 % of control
T/C (dose: 19.0 mg/kg/injection, schedule: Q01DX001 (ip), vehicle: other): 95 % of control
T/C (dose: 38.0 mg/kg/injection, schedule: Q01DX001 (ip), vehicle: other): 89 % of control

NC(CCl)=NCC1CCCCCCC1
T/C (dose: 25.0 mg/kg/injection, schedule: Q01DX009 (ip), vehicle: Klucel (hydroxypropylcellulose) (HPC)): 103 % of control
T/C (dose: 25.0 mg/kg/injection, schedule: Q04DX002 (ip), vehicle: Klucel (hydroxypropylcellulose) (HPC)): 100 % of control
T/C (dose: 50.0 mg/kg/injection, schedule: Q04DX002 (ip), vehicle: Klucel (hydroxypropylcellulose) (HPC)): 107 % of control
T/C [17]: 101 % of control and 89 % of control

O=c1ssc(Nc2ccccc2)c1Cl
T/C [17]: 93 % of control
T/C (dose: 200.0 mg/kg/injection, schedule: Q04DX002 (ip), vehicle: Klucel (hydroxypropylcellulose) (HPC)): 100 % of control
T/C (dose: 400.0 mg/kg/injection, schedule: Q04DX002 (ip), vehicle: Klucel (hydroxypropylcellulose) (HPC)): 104 % of control

CN(C)S(=O)(=O)c1ccc(N=NN2CCOCC2)cc1
T/C [14]: 115 % of control
T/C [15]: 97 % of control
T/C [16]: 108 % of control
